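Method: 48-hour compound exposure of cells in 96-well plates, five concentrations, linear interpolation of endpoints. The concentration for full growth arrest is given as TGI.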
Key:
Experiment in all cases: NCI-60 cell line screen, 48 h
SK-MEL-2 melanoma = test system: SK-MEL-2 melanoma
U251 CNS = test system: U251 CNS
UO-31 renal = test system: UO-31 renal
HCT-116 colon = test system: HCT-116 colon
TK-10 renal = test system: TK-10 renal
ACHN renal = test system: ACHN renal
MALME-3M melanoma = test system: MALME-3M melanoma
HOP-18 NSCLC = test system: HOP-18 NSCLC
COLO 205 colon = test system: COLO 205 colon
A498 renal = test system: A498 renal
HT29 colon = test system: HT29 colon
MOLT-4 leukemia = test system: MOLT-4 leukemia
IGROV1 ovarian = test system: IGROV1 ovarian
UACC-257 melanoma = test system: UACC-257 melanoma
HOP-92 NSCLC = test system: HOP-92 NSCLC
SF-268 CNS = test system: SF-268 CNS
HCT-15 colon = test system: HCT-15 colon
NCI-H522 lung = test system: NCI-H522 lung
SK-MEL-28 melanoma = test system: SK-MEL-28 melanoma
CAKI-1 renal = test system: CAKI-1 renal
NCI-H23 lung = test system: NCI-H23 lung
DLD-1 colon = test system: DLD-1 colon
OVCAR-5 ovarian = test system: OVCAR-5 ovarian
OVCAR-3 ovarian = test system: OVCAR-3 ovarian
NCI-H226 lung = test system: NCI-H226 lung
RXF-631 renal = test system: RXF-631 renal
SNB-75 CNS = test system: SNB-75 CNS
LXFL 529 NSCLC = test system: LXFL 529 NSCLC
M19-MEL melanoma = test system: M19-MEL melanoma
A549 NSCLC = test system: A549 NSCLC
SK-MEL-5 melanoma = test system: SK-MEL-5 melanoma
SF-295 CNS = test system: SF-295 CNS
M14 melanoma = test system: M14 melanoma
SK-OV-3 ovarian = test system: SK-OV-3 ovarian
SN12C renal = test system: SN12C renal
EKVX NSCLC = test system: EKVX NSCLC
CCRF-CEM leukemia = test system: CCRF-CEM leukemia
SNB-78 CNS = test system: SNB-78 CNS
DMS 273 small cell lung = test system: DMS 273 small cell lung
HOP-62 NSCLC = test system: HOP-62 NSCLC
OVCAR-4 ovarian = test system: OVCAR-4 ovarian
OVCAR-8 ovarian = test system: OVCAR-8 ovarian
SR leukemia = test system: SR leukemia
UACC-62 melanoma = test system: UACC-62 melanoma
SF-539 CNS = test system: SF-539 CNS
SW-620 colon = test system: SW-620 colon
K-562 leukemia = test system: K-562 leukemia
KM20L2 colon = test system: KM20L2 colon
DMS 114 small cell lung = test system: DMS 114 small cell lung
HCC-2998 colon = test system: HCC-2998 colon
KM12 colon = test system: KM12 colon
SNB-19 CNS = test system: SNB-19 CNS
786-0 renal = test system: 786-0 renal
LOX IMVI melanoma = test system: LOX IMVI melanoma
NCI-H460 lung = test system: NCI-H460 lung
XF 498 CNS = test system: XF 498 CNS
HL-60(TB) leukemia = test system: HL-60(TB) leukemia

Measured: TGI

O=P(Nc1ccc(Cl)cc1)(Oc1ccccc1)N(CCCl)CCCl (stereo not given)
not listed: SNB-19 CNS | 786-0 renal | LOX IMVI melanoma | NCI-H460 lung | XF 498 CNS | HL-60(TB) leukemia
> 100 µM: all other assays above

O=C1C2C3C=C4c5ccccc5N(c5ccccc5)C4(C2C(=O)N1Cc1ccccc1)C1C(=O)N(Cc2ccccc2)C(=O)C31 (stereo not given)
not listed: IGROV1 ovarian | NCI-H522 lung | CAKI-1 renal | OVCAR-3 ovarian | NCI-H226 lung | SK-MEL-5 melanoma | M14 melanoma | SK-OV-3 ovarian | EKVX NSCLC | DMS 273 small cell lung | HOP-62 NSCLC | OVCAR-4 ovarian | UACC-62 melanoma
> 100 µM: all other assays above

— PubChem BioAssay (NCI)
